Where two headings read alike, the source gives them in different places.
How the values were obtained:
[1] = rat, in vivo
[2] = test system: migraine model in anesthetized dogs; experiment: Pharmacodynamic study, capsaicin-induced carotid vasodilation migraine model; type: in vivo, Beagle Dogs; details: regardless of the route of administration
[3] = in vivo; details: female, Sprague Dawley, rat, iv

## CNS(=O)(=O)Cc1ccc2[nH]cc(CCN(C)C)c2c1 [Sumatriptan, sumatriptan]
[1]
  tolerability: well tolerated
[1]; iv
  AUC: 273,729 (min,ng/mL)mg
  Cmax: 26,719 ng/mL/mg
[1]; sc
  AUC: 99,583 (min,ng/mL)mg
  Cmax: 2309 ng/mL/mg
[2]
  Blood pressure and heart rate: unaltered
[3]
  half-life: 304 min

Reference: patent EP3536368B1, “DRY POWDER INHALER COMPRISING A SEROTONIN RECEPTOR AGONIST AND A DIKETOPIPERAZINE FOR TREATING MIGRAINES” (MannKind Corporation, priority 2010, dated 2012)
